Experimental data taken from paper PMC7436000, “The Spectrum of Design Solutions for Improving the Activity-Selectivity Product of Peptide Antibiotics against Multidrug-Resistant Bacteria and Prostate Cancer PC-3 Cells” (Molecules, 2020).
In brackets after ≈: the same amount, converted by molar mass. Peptide text beside a SMILES is read from it.

Columns and labels:
[1] = system: human erythrocytes; settings: cited from earlier work
Excerpt: The cell-penetrating ability is inherent to some amphipathic peptides with a high percentage of cationic residues. More than five arginines are required to direct membrane penetration through the eukaryotic membrane. This condition is fulfilled by guananin 2, the PenArg analog of penetratin, and T2R1, but not by T2. Penetratin, with the sequence […], is a well-known cell-penetrating peptide, which is furthermore an antimicrobial and anticancer peptide. That peptide is, to some degree, toxic to HeLa and Jurkat cancer cell lines. The toxicity to HeLa ...

[2] = system: standard ATCC E. coli; settings: cited from earlier work
[3] = system: standard ATCC S. aureus; settings: cited from earlier work
[4] = system: lymphoma cell line U937; set-up: method as in PMID 21403917; settings: read-out: IC50 against lymphoma cell line U937; cited from earlier work
[5] = cited from earlier work
[6] = cited from earlier work; remark: listed apart in the source
Excerpt: The MAPA analog of the MAP cell-penetrating peptide is five times less hemolytic and has at least two times stronger antibacterial activity than MAP [73] (Table 2). Accordingly, by introduced substitutions, we increased the selectivity index by at least one order of magnitude, and converted a strongly hemolytic, predominantly cell-penetrating peptide with no antibacterial selectivity (SI = 1, [73]), into a potent peptide antibiotic. MAP is an important molecule for engineering new anticancer agents, but as far as we can tell, MAPA is the first known selective anticancer MAP an ...

[7] = system: E. coli clin. isolate; type: cell-based, Escherichia coli; settings: clin. isolate
Excerpt: (§1) The American Type Culture Collection (ATCC, Rockville, MD, USA) strains and Escherichia coli MG1655 were used as standard bacterial strains. Gram-negative ATCC strains consisted of Escherichia coli (ATCC 25922), Pseudomonas aeruginosa (ATCC 27853), Acinetobacter baumannii (ATCC 19606), and Klebsiella pneumoniae (ATCC 13883). The only Gram-positive standard strain chosen for testing was Staphylococcus aureus (ATCC 29213). Clinical isolates with confirmed multidrug-resistance phenotype were obtained from different wards of the University Hospital Center, Split, Croatia. We described their origin, antibiograms, and resistance phenotype previously. In the same paper, we described the procedure for antimicrobial susceptibility testing on planktonic cells, using the microdilution method in 96-well microtiter plates.
(§2) Briefly, cells were grown on agar plates and a single colony was sampled to generate a liquid culture (LC) grown overnight at 37 °C. The culture was sampled, resuspended in fresh medium, and allowed to grow at 37 °C, until reaching the mid-exponential phase. Lysogeny broth (LB) was used in the case of the E. coli MG1655 cells. Mueller Hinton (MH) medium was used for all other bacterial strains. Serial 2-fold dilutions of the peptide (64 μM to 0.0625 μM) were prepared from peptide stock solution in PBS, and added to a final load of 5 × 10^5 CFU/mL in 100 μL total volume of medium per well in a 96-well plate (Brand 781660). Bacterial cultures were incubated with peptides for 18 h to 24 h at 37 °C. The minimum inhibitory concentration (MIC) was defined as the lowest concentration of the peptide, at which no visible bacterial growth was observed. The MIC for each of the tested peptides was determined in at least three individual assays under the same laboratory conditions. […] At the end of the incubation period for MIC or MBC, the determination of the OD600 was analyzed.

[8] = system: P. aerug. clin. isolate; type: cell-based, Pseudomonas aeruginosa
Excerpt: as §1, §2

[9] = system: K. pneum. clin. isolate; type: cell-based, Klebsiella pneumoniae
Excerpt: as §1, §2

[10] = system: Acinetobacter baumannii (ATCC 19606); type: cell-based; settings: ATCC 19606
Excerpt: as §1, §2

[11] = system: Escherichia coli (ATCC 25922); type: cell-based; settings: ATCC 25922
Excerpt: as §1, §2

[12] = system: Escherichia coli MG1655; type: cell-based; settings: MG1655
Excerpt: as §1, §2

[13] = system: Klebsiella pneumoniae (ATCC 13883); type: cell-based; settings: ATCC 13883
Excerpt: as §1, §2

[14] = system: Pseudomonas aeruginosa (ATCC 27853); type: cell-based; settings: ATCC 27853
Excerpt: as §1, §2

[15] = system: Staphylococcus aureus (ATCC 29213); type: cell-based; settings: ATCC 29213
Excerpt: as §1, §2

[16] = system: A. baum. clin. isolate; type: cell-based, Acinetobacter baumannii
Excerpt: as §1, §2

[17] = system: S. aureus clin. isolate; type: cell-based, Staphylococcus aureus; settings: clin. isolate
Excerpt: as §1, §2

[18] = system: human erythrocytes; experiment: Hemolysis of human erythrocytes; type: cell-based; settings: 1 h
Protocol: Fresh blood was obtained from a healthy donor. Blood was stored in a tube containing EDTA at 4 °C and used within 24 h. Before use, 1 mL of blood was centrifuged (400× g, 10 min), and the supernatant was discarded. Moreover, 500 μL cold PBS with EDTA (1 mM) was added, mixed and centrifuged. The supernatant was discarded. Furthermore, 500 μL of cold PBS with EDTA (1 mM) was added, from which a dilution of 1% blood was made. Peptides were prepared in PBS at a 2 × concentration in 100 µL. […] The suspension was incubated at 37 °C for 1 h and centrifuged at 10,000× g for 5 min. […] After centrifugation, the supernatant was added to a 96-well microtiter plate (150–180 μL), and the absorbance was measured at 450 nm, using EnSight Multimode Plate Reader (PerkinElmer, Inc.). Each measurement was done in triplicate. […] We opted to also include the extrapolated HC50 in our results, to permit comparisons with older toxicity results. However, the HC20 measurements were used for ranking the peptides according to their selectivity and overall performance (Figure 1 and Figure 2 and Table 2).

[19] = system: human primary dermal fibroblasts; type: cell-based; settings: 24 h
Protocol: (§3) Prostate cancer cells were donated by the University of Split, School of Medicine. Cells were cultured in RMPI-1640 medium, supplemented with 10% FBS, 1% Penicillin-Streptomycin, and 1% L-Glutamine. Human dermal fibroblasts were purchased from Biopredic (France) and cultured in DMEM medium, supplemented with 10% FBS and 1% Penicillin-Streptomycin. All cell lines were maintained in a humidified incubator with 5% CO2 at 37 °C. Cells were detached using the trypsin-EDTA solution and sub-cultured (7000 cells/well) in a 96-well plate overnight. Peptide stock solutions were prepared in PBS, and cancer cells were treated with 2-fold serial dilutions for 24 h at 37 °C, with 5% CO2. The toxicity of 6 selected peptides was assessed by a standard MTT assay. Treated cells were incubated with MTT working solution (0.5 mg/mL Thiazolyl Blue Tetrazolium Bromide) for 4 h at 37 °C with 5% CO2. Precipitated formazan was dissolved in 200 µL DMSO and absorbance was measured at 595 nm with EnSight Multimode Plate Reader (PerkinElmer, Inc.)

[20] = system: PC-3 prostate cancer cell line; type: cell-based, human; settings: 24 h
Protocol: as §3

[21] = system: human erythrocytes; experiment: Hemolysis of human erythrocytes; type: cell-based; settings: 24 h
[22] = system: Gram-negative and Gram-positive bacteria; settings: cited from earlier work
Excerpt: (§4) In the ZYK1 example, the parent peptide already has selective antimicrobial and antitumor activity. […] It follows that the TI for the paren ...

[23] = system: HeLa (human cervical carcinoma cells) and HL60 (human promyelocytic leukemia cells); settings: two selected cancer cell lines; read-out: IC50 against HeLa and HL60; cited from earlier work
Excerpt: as §4

[24] = system: human neonate chondrocytes; settings: cited from earlier work
Excerpt: as §4

Row | Compound | MIC (E. coli clin. isolate) [7] [µM] | MIC (P. aerug. clin. isolate) [8] [µM] | MIC (K. pneum. clin. isolate) [9] [µM] | MIC (A. baum. ATCC 19606) [10] [µM] | MIC (E. coli ATCC 25922) [11] [µM] | MIC (E. coli MG1655) [12] [µM] | MIC (K. pneum. ATCC 13883) [13] [µM] | MIC (P. aerug. ATCC 27853) [14] [µM] | MIC (S. aureus ATCC 29213) [15] [µM] | MIC (A. baum. clin. isolate) [16] [µM] | MIC (S. aureus clin. isolate) [17] [µM] | IC50 [19] [µM] | (TI/ IC50C) vs. MP1 [20] | IC50 [20] [µM] | TI (HC20/IC20C) [20] | TI (IC50F/IC50C) [20] | TI/ IC50C [20] | other results
1 | RQYMRQIEQALRYGYRISRR [guananin 2, arginine-rich designed peptide from the literature] |  |  |  |  |  |  |  |  |  |  |  |  |  |  |  |  |  | selectivity index [1]: about 24
2 | GIGKFLKKAKKFGKAFVKILKK [pexiganan] |  |  |  |  |  |  |  |  |  |  |  |  |  |  |  |  |  | MIC, standard ATCC E. coli [2]: 6.5 µM; MIC, standard ATCC S. aureus [3]: 6.5 µM; IC50 [4]: 4 µM; HC50 hemolytic activity [5]: 45 µM
3 | KLALKLALKALKAALKLA [MAP, cell-penetrating peptide, template of mapegin] |  |  |  |  |  |  |  |  |  |  |  |  |  |  |  |  |  | antibacterial selectivity SI [6]: 1
4 | CC[C@H](C)[C@H](NC(=O)CN)C(=O)NCC(=O)N[C@@H](CCCCN)C(=O)N[C@@H](Cc1ccccc1)C(=O)N[C@@H](CC(C)C)C(=O)N[C@@H](CCCCN)C(=O)N[C@@H](CCCCN)C(=O)N[C@@H](C)C(=O)N[C@@H](CCCCN)C(=O)N[C@@H](CCCCN)C(=O)N[C@@H](Cc1ccccc1)C(=O)NCC(=O)N[C@@H](CCCCN)C(=O)N[C@@H](C)C(=O)N[C@@H](Cc1ccccc1)C(=O)N[C@H](C(=O)N[C@@H](CC(C)C)C(=O)N[C@H](C(=O)N[C@@H](CC(C)C)C(=O)N[C@@H](CCCCN)C(=O)N[C@@H](CCCCN)C(N)=O)[C@@H](C)CC)C(C)C [PEXA] (H-GIGKFLKKAKKFGKAFVLILKK-NH2) | 4 (≈ 9.85 µg/mL) | 16 (≈ 39.4 µg/mL) | 4 (≈ 9.85 µg/mL) | 1 to 2 | 0.5 to 1 | 4 (≈ 9.85 µg/mL) | 2 (≈ 4.92 µg/mL) | 4 (≈ 9.85 µg/mL) | 0.5 (≈ 1.23 µg/mL) | 1 to 2 | 2 (≈ 4.92 µg/mL) | 12 | 18 | 4 | 6.7 | 3 | 0.75 | HC10 [18]: 1.6 µM; HC20 [18]: 7 µM; HC50 * (extrapolated) [21]: 520 * µM
5 | GIIKKIIKKIIKKI-NH2 [already known artificial AMP template of ZYK1] |  |  |  |  |  |  |  |  |  |  |  |  |  |  |  |  |  | MIC values [22]: about 10 μM; IC50 [23]: 15 to 25 µM; IC50 [24]: > 40 µM
6 | CC[C@H](C)[C@H](NC(=O)CN)C(=O)N[C@@H](CCCCN)C(=O)N[C@@H](CCCCN)C(=O)N[C@@H](Cc1c[nH]c2ccccc12)C(=O)N[C@H](C(=O)N[C@@H](CCCCN)C(=O)NCC(=O)N[C@H](C(=O)N[C@@H](C)C(=O)N[C@@H](CCCCN)C(=O)NCC(=O)N[C@H](C(=O)N[C@@H](C)C(=O)N[C@@H](CCCCN)C(=O)N[C@@H](CC(=O)O)C(=O)N[C@@H](CC(C)C)C(=O)N[C@@H](C)C(=O)N[C@@H](CCCCN)C(=O)N[C@@H](CCCCN)C(=O)N[C@H](C(=O)N[C@@H](CC(C)C)C(N)=O)[C@@H](C)CC)C(C)C)C(C)C)C(C)C [FLEX] (H-GIKKWVKGVAKGVAKDLAKKIL-NH2) | 0.5 (≈ 1.17 µg/mL) | 2 to 4 | 2 to 4 | 0.5 to 1 | 0.25 (≈ 0.587 µg/mL) | 16 (≈ 37.6 µg/mL) | 0.5 to 1 | 2 (≈ 4.7 µg/mL) | 0.25 (≈ 0.587 µg/mL) | 1 (≈ 2.35 µg/mL) | 4 (≈ 9.4 µg/mL) | 30 | 18.5 | 6.25 | 25 | 4.8 | 0.77 | HC10 ([18]; concentration causing 10% hemolysis, 0.5% RBC in PBS, 37 °C, absorbance 450 nm, 0.2% Triton = 100%, triplicate): 6 µM; HC20 ([18]; concentration causing 20% hemolysis, 0.5% RBC in PBS, 37 °C, absorbance 450 nm, triplicate): 25 µM
